Laboratory results: patent US9890171B2, “Aldosterone synthase inhibitors” (Boehringer Ingelheim International GmbH, priority 2014, dated 2018)

What follows are compounds tested against aldosterone synthase (CYP11B2) (Macaca fascicularis, UniProt A0A2K5UPL9) (assay: aldosterone synthase inhibition assay). Settings: cynomolgus adrenal gland mitochondria, 2 μM corticosterone, aldosterone quantified by mass spectrometry.
Type: biochemical, cynomolgus monkey
Method in brief: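 Cynomolgus adrenal mitochondria ([…]) used as CYP11B2 source with 2 μM corticosterone in 100 mM potassium phosphate pH 7.4, 1% DMSO; reaction started with 1 mM NADPH, run 60-90 min at 37° C. Aldosterone measured by mass spectrometry; IC50 from 4-parameter logistic fit, no-NADPH blank as 0%.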

Sequence of aldosterone synthase (CYP11B2) (A0A2K5UPL9 1-503): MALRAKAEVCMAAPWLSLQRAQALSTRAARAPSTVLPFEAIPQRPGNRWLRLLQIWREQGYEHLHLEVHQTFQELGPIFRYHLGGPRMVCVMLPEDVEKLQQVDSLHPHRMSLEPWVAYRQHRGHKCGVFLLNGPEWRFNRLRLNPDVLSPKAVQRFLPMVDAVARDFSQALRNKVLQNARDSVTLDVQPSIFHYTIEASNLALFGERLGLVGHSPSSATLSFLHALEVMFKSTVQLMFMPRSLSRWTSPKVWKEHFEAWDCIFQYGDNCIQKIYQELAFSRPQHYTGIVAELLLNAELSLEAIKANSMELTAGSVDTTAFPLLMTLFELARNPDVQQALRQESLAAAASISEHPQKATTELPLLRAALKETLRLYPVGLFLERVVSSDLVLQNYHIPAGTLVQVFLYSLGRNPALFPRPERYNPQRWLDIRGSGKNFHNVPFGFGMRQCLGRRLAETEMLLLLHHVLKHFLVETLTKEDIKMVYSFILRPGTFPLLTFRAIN

Row | IC50 | Structure (SMILES)
1 | 12.5 nM | Cn1ncc2ccc(-c3cncc4c3COC3(CC3)C4O)cc21 (single isomer, unassigned) [Compound 16, 8-(1-methylindazol-6-yl)spiro[1,4-dihydropyrano[4,3-c]pyridine-3,1′-cyclopropane]-4-ol]
2 | 341 nM | CCC(=O)NC1COCc2c(-c3ccc4c(c3)C(O)CCO4)cncc21 (single isomer, unassigned) [Compound 135, N-[8-(4-Hydroxy-chroman-6-yl)-3,4-dihydro-1H-pyrano[4,3-c]pyridin-4-yl]-propionamide]
3 | 220 nM | Cc1nnc2ccc(-c3cncc4c3COC3(CC3)C4O)cn12 (single isomer, unassigned) [Compound 91, 8-(3-methyl-[1,2,4]triazolo[4,3-a]pyridin-6-yl)spiro[1,4-dihydropyrano[4,3-c]pyridine-3,1′-cyclopropane]-4-ol]
4 | 195 nM | Cn1ncc2cc(-c3cncc4c3COCC4O)ccc21 (single isomer, unassigned) [Compound 23, 8-(1-Methyl-1H-indazol-5-yl)-3,4-dihydro-1H-pyrano[4,3-c]pyridin-4-ol]
5 | 21.6 nM | Cn1ncc2c(F)cc(-c3cncc4c3COCC4(C)O)cc21 (single isomer, unassigned) [Compound 175, 8-(4-Fluoro-1-methyl-1H-indazol-6-yl)-4-methyl-3,4-dihydro-1H-pyrano[4,3-c]pyridin-4-ol]
6 | 1010 nM | CN1CCc2cc(-c3cncc4c3COCC4O)ccc2C1=O (single isomer, unassigned) [Compound 124, 6-(4-Hydroxy-3,4-dihydro-1H-pyrano[4,3-c]pyridin-8-yl)-2-methyl-3,4-dihydro-2H-isoquinolin-1-one]
7 | 653 nM | CCS(=O)(=O)NC1COCc2c(-c3cc4c(cnn4C)cc3C)cncc21 (single isomer, unassigned) [Compound 79, Ethanesulfonic acid [8-(1,5-dimethyl-1H-indazol-6-yl)-3,4-dihydro-1H-pyrano[4,3-c]pyridin-4-yl]-amide]
8 | 118 nM | OC1COCc2c(-c3ccc4c(c3)C(F)(F)CCO4)cncc21 (single isomer, unassigned) [Compound 142, 8-(4,4-Difluoro-chroman-6-yl)-3,4-dihydro-1H-pyrano[4,3-c]pyridin-4-ol]

Continued, compound first:

Row | Structure (SMILES) | IC50
9 | CCC(=O)NC1COCc2c(-c3ccc4c(cnn4C)c3)cncc21 (single isomer, unassigned) [Compound 72, N-[8-(1-Methyl-1H-indazol-5-yl)-3,4-dihydro-1H-pyrano[4,3-c]pyridin-4-yl]-propionamide] | 2300 nM
10 | Cn1ncc2cc(-c3cncc4c3COCC4O)ccc21 (single isomer, unassigned) [Compound 36, 8-(1-Methyl-1H-indazol-5-yl)-3,4-dihydro-1H-pyrano[4,3-c]pyridin-4-ol] | 17.5 nM
11 | CC1(O)CCOc2ccc(-c3cncc4c3COCC4O)cc21 (single isomer, unassigned) [Compound 139, 8-(4-Hydroxy-4-methyl-chroman-6-yl)-3,4-dihydro-1H-pyrano[4,3-c]pyridin-4-ol] | 2800 nM
12 | CC(=O)NC1COCc2c(-c3ccc4c(c3)CCC4=O)cncc21 (single isomer, unassigned) [Compound 152, N-[8-(1-Oxo-indan-5-yl)-3,4-dihydro-1H-pyrano[4,3-c]pyridin-4-yl]-acetamide] | 50.2 nM
13 | OC1COCc2c(-c3ccc4cc[nH]c4c3)cncc21 (single isomer, unassigned) [Compound 21, 8-(1H-Indol-6-yl)-3,4-dihydro-1H-pyrano[4,3-c]pyridin-4-ol] | 195 nM
14 | CCC(=O)NC1COCc2c(-c3ccc4c(c3)COCC4(F)F)cncc21 (single isomer, unassigned) [Compound 194, N-[8-(4,4-Difluoro-isochroman-7-yl)-3,4-dihydro-1H-pyrano[4,3-c]pyridin-4-yl]-propionamide] | 38 nM
15 | Cn1nc(C(F)(F)F)cc1-c1cncc2c1COCC2O (single isomer, unassigned) [Compound 42, 8-(2-Methyl-5-trifluoromethyl-2H-pyrazol-3-yl)-3,4-dihydro-1H-pyrano[4,3-c]pyridin-4-ol] | 367 nM
